Reference: paper PMC11855827, “High-Throughput Screening of Five Compound Libraries for Anthelmintic Activity and Toxicity Leads to the Discovery of Two Flavonoid Compounds” (International Journal of Molecular Sciences, 2025)
Values joined by “and” are separate entries in the source; they are usually repeats but may differ in a detail not shown here. Equal values may be shown once. Read-outs that look alike come from different tables or passages of the source. Where a SMILES comes first, the peptide text is derived from it. The star is where a group is joined. βNA = c1ccc2cc(N*)ccc2c1

Tested on: C. elegans
[1] = Table S2, C. elegans SS assay, 110 μM, 0 h, averages of 4 data points
[2] = Table S2, C. elegans SS assay, 110 μM, 24 h, averages of 4 data points

Compound: COc1ccc(/C=C/C(=O)O[C@@H]2[C@H](O[C@@H]3O[C@@H](C)[C@H](O)[C@@H](O)[C@H]3O)[C@@H](O[C@@H]3O[C@@H](C)[C@H](O[C@@H]4OC[C@@H](O[C@@H]5O[C@H](CO)[C@H](O)[C@H](O)[C@H]5O)[C@H](O)[C@H]4O)[C@@H](O)[C@H]3O)[C@H](OC(=O)[C@]34CCC(C)(C)C[C@H]3C3=CC[C@@H]5[C@@]6(C)C[C@H](O)[C@H](O[C@@H]7O[C@H](CO)[C@@H](O)[C@H](O)[C@H]7O)[C@@](C)(C(=O)O)[C@@H]6CC[C@@]5(C)[C@]3(CO)CC4)O[C@@H]2C)cc1 [Onjisaponin B]
- Percentage of motility inhibition 0 h [1]: 30%
- Percentage of motility inhibition 24 h [2]: 33%

Compound: COc1cc(/C=C/C(=O)O[C@@H]2[C@H](O[C@@H]3O[C@@H](C)[C@H](O)[C@@H](O)[C@H]3O)[C@@H](O[C@@H]3O[C@@H](C)[C@H](O[C@@H]4OC[C@@H](O)[C@H](O)[C@H]4O)[C@@H](O)[C@H]3O)[C@H](OC(=O)[C@]34CCC(C)(C)C[C@H]3C3=CC[C@@H]5[C@@]6(C)C[C@H](O)[C@H](O[C@@H]7O[C@H](CO)[C@@H](O)[C@H](O)[C@H]7O)[C@@](C)(C(=O)O)[C@@H]6CC[C@@]5(C)[C@]3(CO)CC4)O[C@@H]2C)cc(OC)c1OC [Onjisaponin Z]
- Percentage of motility inhibition 0 h [1]: 4%
- Percentage of motility inhibition 24 h [2]: 21%

Compound: CN[C@H](CC(C)C)C(=O)N[C@H]1C(=O)N[C@@H](CC(N)=O)C(=O)N[C@H]2C(=O)N[C@H]3C(=O)N[C@H](C(=O)N[C@H](C(=O)O)c4cc(O)cc(O)c4-c4cc3ccc4O)[C@H](O[C@H]3C[C@](C)(N)[C@@H](O)[C@H](C)O3)c3ccc(c(Cl)c3)Oc3cc2cc(c3O[C@@H]2O[C@H](CO)[C@@H](O)[C@H](O)[C@H]2O[C@H]2C[C@](C)(NCc3ccc(-c4ccc(Cl)cc4)cc3)[C@@H](O)[C@H](C)O2)Oc2ccc(cc2Cl)[C@H]1O.O=P(O)(O)O.O=P(O)(O)O [Oritavancin (diphosphate)]
- Percentage of motility inhibition 0 h [1]: 34%
- Percentage of motility inhibition 24 h [2]: 8%

Compound: Cc1ncc([N+](=O)[O-])n1CC(O)CCl (centres unmarked) [Ornidazole (Levo‐)]
- Percentage of motility inhibition 0 h [1]: 27%
- Percentage of motility inhibition 24 h [2]: 23%

Compound: O=c1cc(-c2ccccc2)oc2cc(O[C@@H]3O[C@H](CO)[C@@H](O)[C@H](O)[C@H]3O)c(O)c(O)c12 [Oroxin A]
- Percentage of motility inhibition 0 h [1]: 0%
- Percentage of motility inhibition 24 h [2]: 1%

Compound: O=c1cc(-c2ccccc2)oc2cc(O[C@@H]3O[C@H](CO[C@@H]4O[C@H](CO)[C@@H](O)[C@H](O)[C@H]4O)[C@@H](O)[C@H](O)[C@H]3O)c(O)c(O)c12 [Oroxin B]
- Percentage of motility inhibition 0 h [1]: 0%
- Percentage of motility inhibition 24 h [2]: 0%

Compound: COc1c(O[C@@H]2O[C@H](C(=O)O)[C@@H](O)[C@H](O)[C@H]2O)cc2oc(-c3ccccc3)cc(=O)c2c1O [Oroxylin A‐7‐O‐glucuronide]
- Percentage of motility inhibition 0 h [1]: 0%
- Percentage of motility inhibition 24 h [2]: 1%

Compound: CCOC(=O)C1=C[C@@H](OC(CC)CC)[C@H](NC(C)=O)[C@@H](N)C1.O=P(O)(O)O [Oseltamivir ( phosphate)]
- Percentage of motility inhibition 0 h [1]: 0%
- Percentage of motility inhibition 24 h [2]: 0%

Compound: CCC(CC)O[C@@H]1C=C(C(=O)O)C[C@H](N)[C@H]1NC(C)=O [Oseltamivir (acid)]
- Percentage of motility inhibition 0 h [1]: 18%
- Percentage of motility inhibition 24 h [2]: 8%

Compound: C[C@@H]1O[C@@H](O[C@H]2C[C@@H](O)[C@]3(CO)[C@H]4[C@H](O)C[C@]5(C)[C@@H](C6=CC(=O)OC6)CC[C@]5(O)[C@@H]4CC[C@]3(O)C2)[C@H](O)[C@H](O)[C@H]1O.O.O.O.O.O.O.O.O [Ouabain (Octahydrate)]
- Percentage of motility inhibition 0 h [1]: 0%
- Percentage of motility inhibition 24 h [2]: 2%

Compound: Cc1onc(-c2ccccc2)c1C(=O)N[C@@H]1C(=O)N2[C@@H]1SC(C)(C)[C@@H]2C(=O)[O-].O.[Na+] [Oxacillin (sodium monohydrate)]
- Percentage of motility inhibition 0 h [1]: 27%
- Percentage of motility inhibition 24 h [2]: 9%

Compound: CN1CCCN=C1/C=C/c1cccc(O)c1.O=C(O)c1cc2ccccc2c(Cc2c(O)c(C(=O)O)cc3ccccc23)c1O [Oxantel (pamoate)]
- Percentage of motility inhibition 0 h [1]: 54%
- Percentage of motility inhibition 24 h [2]: 33%

Compound: O=C1CCCC2C3CCC[N+]4([O-])CCCC(CN12)C34 (centres unmarked) [Oxysophoridine]
- Percentage of motility inhibition 0 h [1]: 18%
- Percentage of motility inhibition 24 h [2]: 9%

Compound: CN1CC[C@@]23C=C[C@H](O)C[C@@H]2Oc2c(O)ccc(c23)C1 [O‐Desmethyl Galantha mine]
- Percentage of motility inhibition 0 h [1]: 4%
- Percentage of motility inhibition 24 h [2]: 5%

Compound: Cl.Cl.NC(N)=NCCC[C@H](NC(=O)[C@@H](N)Cc1ccccc1)C(=O)Nc1ccc2ccccc2c1 [PAβN (dihydrochloride)] (H-Phe-Arg-βNA)
- Percentage of motility inhibition 0 h [1]: 9%
- Percentage of motility inhibition 24 h [2]: 6%

Compound: C[C@@]1(F)[C@H](O)[C@@H](CO)O[C@H]1n1ccc(=O)[nH]c1=O [PSI‐6206]
- Percentage of motility inhibition 0 h [1]: 19%
- Percentage of motility inhibition 24 h [2]: 5%

Compound: CC(=O)O[C@H]1C(=O)[C@@]2(C)[C@H]([C@H](OC(=O)c3ccccc3)[C@]3(O)C[C@H](OC(=O)[C@H](O)[C@@H](NC(=O)c4ccccc4)c4ccccc4)C(C)=C1C3(C)C)[C@]1(OC(C)=O)CO[C@@H]1C[C@@H]2O [Paclitaxel]
- Percentage of motility inhibition 0 h [1]: 18% and 29%
- Percentage of motility inhibition 24 h [2]: 12% and 23%

Compound: CSC(=O)OCC1=C[C@@H]2OC(=O)C3=CO[C@@H](O[C@@H]4O[C@H](CO)[C@@H](O)[C@H](O)[C@H]4O)[C@H]1[C@@H]32 [Paederoside]
- Percentage of motility inhibition 0 h [1]: 9%
- Percentage of motility inhibition 24 h [2]: 4%

Compound: CSC(=O)OCC1=C[C@H](O)[C@H]2C(C(=O)O)=CO[C@@H](O[C@@H]3O[C@@H](CO)[C@@H](O)[C@@H](O)[C@H]3O)[C@H]12 [Paederosidic acid]
- Percentage of motility inhibition 0 h [1]: 0%
- Percentage of motility inhibition 24 h [2]: 0%

Compound: COc1cc2c(cc1OC)-c1cc3ccc(OC)c(OC)c3c[n+]1CC2.[Cl-] [Palmatine (chloride)]
- Percentage of motility inhibition 24 h [2]: 0%

Compound: COc1cc2c(cc1OC)-c1cc3ccc(OC)c(OC)c3c[n+]1CC2.[OH-] [Palmatine (hydroxide)]
- Percentage of motility inhibition 0 h [1]: 1%
- Percentage of motility inhibition 24 h [2]: 0%

Compound: COc1cc2c(cc1OC)-c1cc3ccc(OC)c(O)c3c[n+]1CC2.[OH-] [Palmaturbine (hydroxide)]
- Percentage of motility inhibition 0 h [1]: 0%
- Percentage of motility inhibition 24 h [2]: 8%

Compound: O=c1c(O[C@@H]2O[C@H](CO)[C@H](O)[C@H](O)[C@H]2O[C@@H]2O[C@H](CO)[C@@H](O)[C@H](O)[C@H]2O)c(-c2ccc(O)cc2)oc2cc(O)cc(O)c12 [Panasenoside]
- Percentage of motility inhibition 0 h [1]: 6%
- Percentage of motility inhibition 24 h [2]: 31%

Compound: O=C(CC(O)(CC(=O)OCc1ccc(OC2OC(CO)C(O)C(O)C2O)cc1)C(=O)OCc1ccc(OC2OC(CO)C(O)C(O)C2O)cc1)OCc1ccc(OC2OC(CO)C(O)C(O)C2O)cc1 (centres unmarked) [Parishin]
- Percentage of motility inhibition 0 h [1]: 0%
- Percentage of motility inhibition 24 h [2]: 12%

Compound: NC[C@@H]1O[C@H](O[C@H]2[C@@H](O)[C@H](O[C@@H]3[C@@H](O)[C@H](N)C[C@H](N)[C@H]3O[C@H]3O[C@H](CO)[C@@H](O)[C@H](O)[C@H]3N)O[C@@H]2CO)[C@H](N)[C@@H](O)[C@@H]1O.O=S(=O)(O)O [Paromomycin (sulfate)]
- Percentage of motility inhibition 0 h [1]: 14%
- Percentage of motility inhibition 24 h [2]: 2%

Compound: C[C@H]1CC[C@@]2(O)C(C)(C)[C@@H]3CC[C@@]2(C)[C@H]1C3 [Patchouli alcohol]
- Percentage of motility inhibition 0 h [1]: 24%
- Percentage of motility inhibition 24 h [2]: 35%

Compound: CS(=O)(=O)O.C[C@H]1COc2c(C3(N)CC3)c(F)cc3c(=O)c(C(=O)O)cn1c23 [Pazufloxacin (mesylate)]
- Percentage of motility inhibition 0 h [1]: 28%
- Percentage of motility inhibition 24 h [2]: 2%

Compound: CCn1cc(C(=O)O)c(=O)c2cc(F)c(N3CCN(C)CC3)cc21.CS(=O)(=O)O [Pefloxacin (mesylate)]
- Percentage of motility inhibition 0 h [1]: 9%
- Percentage of motility inhibition 24 h [2]: 8%

Compound: C[C@H]1CC[C@@H]2N(C1)C[C@H]1[C@@H]3C[C@H]4[C@@H](C[C@H](O)[C@H]5C[C@@H](O)CC[C@@]54C)[C@@H]3CC[C@@H]1[C@]2(C)O [Peimine]
- Percentage of motility inhibition 0 h [1]: 7%
- Percentage of motility inhibition 24 h [2]: 0%

Compound: C[C@H]1CCC2N(C1)C[C@H]1C3CC4[C@@H](CC(=O)C5C[C@@H](O)CC[C@@]54C)C3CCC1[C@]2(C)O (some centres unmarked) [Peiminine]
- Percentage of motility inhibition 0 h [1]: 0%
- Percentage of motility inhibition 24 h [2]: 19%

Compound: CC1=C2C[C@H]3[C@@H](CC(=O)[C@H]4C[C@@H](O)CC[C@@]43C)[C@@H]2CC[C@]12O[C@@H]1C[C@H](C)CN[C@H]1[C@H]2C [Peimisine]
- Percentage of motility inhibition 0 h [1]: 0%
- Percentage of motility inhibition 24 h [2]: 0%

Compound: CC1(C)S[C@@H]2[C@H](NC(=O)Cc3ccccc3)C(=O)N2[C@H]1C(=O)[O-].[K+] [Penicillin G (potassium)]
- Percentage of motility inhibition 0 h [1]: 14%
- Percentage of motility inhibition 24 h [2]: 8%

Compound: CC1(C)S[C@@H]2[C@H](NC(=O)COc3ccccc3)C(=O)N2[C@H]1C(=O)[O-].[K+] [Penicillin V (Potassium)]
- Percentage of motility inhibition 0 h [1]: 23%
- Percentage of motility inhibition 24 h [2]: 24%

Compound: N=C(N)c1ccc(OCCCCCOc2ccc(C(=N)N)cc2)cc1.O=S(=O)(O)CCO.O=S(=O)(O)CCO [Pentamidine (isethionate)]
- Percentage of motility inhibition 0 h [1]: 0%
- Percentage of motility inhibition 24 h [2]: 0%

Compound: CCC(CC)[C@H](NC(C)=O)[C@@H]1[C@H](O)[C@@H](C(=O)O)C[C@H]1NC(=N)N.O.O.O [Peramivir (trihydrate)]
- Percentage of motility inhibition 0 h [1]: 2%
- Percentage of motility inhibition 24 h [2]: 0%

Compound: C=C(C)[C@@H]1CC=C(CO)CC1 [Perillyl alcohol]
- Percentage of motility inhibition 0 h [1]: 0%
- Percentage of motility inhibition 24 h [2]: 6%

Compound: COc1cc2c(cc1O)C[C@H]1c3cc(O)c(OC)cc3CC[N+]1(C)C2.[Cl-] (some centres unmarked) [Phellodendrine (chloride)]
- Percentage of motility inhibition 0 h [1]: 25%
- Percentage of motility inhibition 24 h [2]: 7%

Compound: CC(C)C[C@H](NP(=O)([O-])O[C@H]1O[C@H](C)[C@@H](O)[C@H](O)[C@@H]1O)C(=O)N[C@@H](Cc1c[nH]c2ccccc12)C(=O)[O-].[Na+].[Na+] [Phosphoramidon (Disodium)]
- Percentage of motility inhibition 0 h [1]: 19%
- Percentage of motility inhibition 24 h [2]: 7%

Compound: CNC(=O)Oc1ccc2c(c1)[C@]1(C)CCN(C)[C@@H]1N2C.O=C(O)c1ccccc1O [Physostigmine (salicylate)]
- Percentage of motility inhibition 0 h (110 µM): 0%
- Percentage of motility inhibition 24 h (110 µM): 0%
